Experimental data taken from ChEMBL document CHEMBL1132777, “Novel, potent and selective chimeric FXa inhibitors featuring hydrophobic P1-ketoamide moieties” (Bioorg Med Chem Lett, 2000).

Key:
Prothrombin [1] = target: T1, Prothrombin (Homo sapiens, UniProt P00734); experiment: In vitro inhibitory activity against Thrombin (FIIa)
Coagulation factor X [2] = target: T2, Coagulation factor X (Homo sapiens, UniProt P00742); experiment: Inhibitory activity against Coagulation factor X
Target sequence in this assay (P00742 41-179 limits assumed): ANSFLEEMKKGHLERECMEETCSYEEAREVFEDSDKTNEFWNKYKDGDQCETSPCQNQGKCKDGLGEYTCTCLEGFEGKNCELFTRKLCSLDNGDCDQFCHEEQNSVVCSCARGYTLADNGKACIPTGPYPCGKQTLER
Target sequence in this assay (P00742 235-488 limits assumed): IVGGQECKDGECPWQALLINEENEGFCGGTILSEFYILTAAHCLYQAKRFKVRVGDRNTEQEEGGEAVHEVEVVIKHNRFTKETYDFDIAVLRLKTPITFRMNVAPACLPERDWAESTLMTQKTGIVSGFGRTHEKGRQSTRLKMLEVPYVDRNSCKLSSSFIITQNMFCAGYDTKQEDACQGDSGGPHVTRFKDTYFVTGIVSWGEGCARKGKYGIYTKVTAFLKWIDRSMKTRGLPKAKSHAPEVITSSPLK

Serine protease 1 [3] = target: T3, Serine protease 1 (Homo sapiens, UniProt P07477); experiment: In vitro inhibitory activity against Human trypsin
Plasminogen [4] = target: T4, Plasminogen (Homo sapiens, UniProt P00747); experiment: In vitro inhibitory activity against plasmin
Plasminogen [5] = target: T4, Plasminogen; experiment: In vitro inhibitory activity against plasmin; inactive
Serine protease 1 [6] = target: T3, Serine protease 1; experiment: In vitro inhibitory activity against Human trypsin; inactive
Coagulation factor X [7] = target: T2, Coagulation factor X; experiment: In vitro inhibitory activity against prothrombinase (PTase) complex
Target sequence in this assay (P00742 whole entry): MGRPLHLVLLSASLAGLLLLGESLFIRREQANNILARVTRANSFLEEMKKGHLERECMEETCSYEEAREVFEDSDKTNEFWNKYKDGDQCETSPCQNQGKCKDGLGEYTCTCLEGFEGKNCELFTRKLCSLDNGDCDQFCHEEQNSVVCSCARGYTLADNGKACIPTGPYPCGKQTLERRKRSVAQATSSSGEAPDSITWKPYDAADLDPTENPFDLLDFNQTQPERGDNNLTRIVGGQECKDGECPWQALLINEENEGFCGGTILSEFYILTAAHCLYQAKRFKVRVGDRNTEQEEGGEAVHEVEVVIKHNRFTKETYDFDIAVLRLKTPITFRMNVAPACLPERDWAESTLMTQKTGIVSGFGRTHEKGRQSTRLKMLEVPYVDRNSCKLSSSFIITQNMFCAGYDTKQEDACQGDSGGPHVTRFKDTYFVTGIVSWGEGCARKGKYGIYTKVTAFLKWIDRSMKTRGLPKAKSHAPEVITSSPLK

Prothrombin [8] = target: T1, Prothrombin; experiment: In vitro inhibitory activity against Thrombin (FIIa); inactive

T4 sequence (P00747 97-580 limits assumed): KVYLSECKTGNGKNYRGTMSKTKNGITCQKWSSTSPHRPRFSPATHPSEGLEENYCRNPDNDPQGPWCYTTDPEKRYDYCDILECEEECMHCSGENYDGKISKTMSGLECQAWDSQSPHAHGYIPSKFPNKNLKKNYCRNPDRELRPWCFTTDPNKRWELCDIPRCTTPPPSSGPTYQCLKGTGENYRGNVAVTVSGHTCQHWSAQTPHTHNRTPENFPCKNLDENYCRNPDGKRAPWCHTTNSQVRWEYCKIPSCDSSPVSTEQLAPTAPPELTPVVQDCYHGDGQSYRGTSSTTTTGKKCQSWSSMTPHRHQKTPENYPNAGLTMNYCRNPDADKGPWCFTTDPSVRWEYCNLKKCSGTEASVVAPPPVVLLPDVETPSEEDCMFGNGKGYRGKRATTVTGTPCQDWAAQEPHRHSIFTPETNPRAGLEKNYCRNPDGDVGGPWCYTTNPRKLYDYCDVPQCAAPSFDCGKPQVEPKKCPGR
T4 sequence (P00747 581-810 limits assumed): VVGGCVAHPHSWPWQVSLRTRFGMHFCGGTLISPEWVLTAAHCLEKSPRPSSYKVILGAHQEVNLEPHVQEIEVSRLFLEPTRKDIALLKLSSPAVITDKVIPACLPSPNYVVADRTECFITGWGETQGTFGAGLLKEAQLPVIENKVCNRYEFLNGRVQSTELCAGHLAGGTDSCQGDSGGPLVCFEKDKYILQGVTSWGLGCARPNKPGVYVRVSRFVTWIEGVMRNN
T3 sequence (P07477 whole entry): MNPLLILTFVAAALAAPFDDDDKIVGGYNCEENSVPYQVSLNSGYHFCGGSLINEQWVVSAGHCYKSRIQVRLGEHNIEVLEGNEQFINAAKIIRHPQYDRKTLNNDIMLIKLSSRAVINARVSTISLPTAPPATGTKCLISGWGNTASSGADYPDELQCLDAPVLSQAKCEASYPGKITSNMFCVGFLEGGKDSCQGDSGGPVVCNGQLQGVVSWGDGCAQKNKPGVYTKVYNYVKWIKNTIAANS

Q: What does the source list for `CCCCCNC(=O)C(=O)[C@H](CC1CCCCC1)NC(=O)CN(C)C(=O)[C@@H](CCCN=C(N)N)NS(=O)(=O)Cc1ccccc1`?
A: IC50 (Prothrombin [1]): 3830 nM; IC50 (Coagulation factor X [2]): 1.87 nM; IC50 (Serine protease 1 [3]): 163 nM; IC50 (Plasminogen [4]): > 2500 nM

Q: How did the IC50 (Prothrombin [1]) turn out when `CCOC(=O)CNC(=O)C(=O)[C@H](CC1CCCCC1)NC(=O)CN(C)C(=O)[C@@H](CCCN=C(N)N)NS(=O)(=O)Cc1ccccc1` was run?
A: > 2500 nM

Q: What about the IC50 (Coagulation factor X [2]) of the same compound?
A: 2.13 nM

Q: And the IC50 (Plasminogen [5])?
A: Not Active

Q: And the IC50 (Serine protease 1 [6])?
A: Not Active

Q: Which IC50 (Prothrombin [1]) does the source give for `CCOC(=O)CNC(=O)C(=O)[C@H](Cc1ccccc1)NC(=O)CN(C)C(=O)[C@@H](CCCN=C(N)N)NS(=O)(=O)Cc1ccccc1` here?
A: > 2500 nM

Q: And the IC50 (Coagulation factor X [2])?
A: 6.6 nM

Q: And the IC50 (Serine protease 1 [3])?
A: > 2500 nM

Q: And the IC50 (Plasminogen [5])?
A: Not Active

Q: And the IC50 (Coagulation factor X [7])?
A: 25.1 nM

Q: With `CCOC(=O)CNC(=O)C(=O)[C@H](Cc1ccc(OC(C)(C)C)cc1)NC(=O)CN(C)C(=O)[C@@H](CCCN=C(N)N)NS(=O)(=O)Cc1ccccc1.O=C(O)C(F)(F)F` as the compound, how does the IC50 (Prothrombin [8]) read?
A: Not Active

Q: What about the IC50 (Coagulation factor X [2]) of the same compound?
A: 246 nM

Q: And the IC50 (Serine protease 1 [6])?
A: Not Active

Q: And the IC50 (Plasminogen [4])?
A: > 2500 nM

Q: `CN(CC(=O)N[C@H]1CCCC(C(=N)N)C1O)C(=O)[C@@H](CCCN=C(N)N)NS(=O)(=O)Cc1ccccc1` (some centres undefined) was tested. Which IC50 (Prothrombin [1]) did it give?
A: > 2500 nM

Q: What about the IC50 (Coagulation factor X [2]) of the same compound?
A: 0.86 nM

Q: What about the IC50 (Serine protease 1 [3]) of the same compound?
A: 74.7 nM

Q: What about the IC50 (Coagulation factor X [7]) of the same compound?
A: 3.4 nM

Q: What about the IC50 (Plasminogen [4]) of the same compound?
A: 1200 nM

Q: What does the source list for `CCOC(=O)CNC(=O)C(=O)[C@H](Cc1ccc(O)cc1)NC(=O)CN(C)C(=O)[C@@H](CCCN=C(N)N)NS(=O)(=O)Cc1ccccc1.O=C(O)C(F)(F)F`?
A: IC50 (Prothrombin [1]): > 2500 nM; IC50 (Coagulation factor X [2]): 7.63 nM; IC50 (Plasminogen [5]): Not Active; IC50 (Serine protease 1 [6]): Not Active; IC50 (Coagulation factor X [7]): 29.2 nM

Q: What does the source list for `CN(CC(=O)N[C@@H](Cc1ccccc1)C(=O)C(=O)NCC(=O)NCCc1ccccc1)C(=O)[C@@H](CCCN=C(N)N)NS(=O)(=O)Cc1ccccc1.O=C(O)C(F)(F)F`?
A: IC50 (Prothrombin [1]): > 2500 nM; IC50 (Coagulation factor X [2]): 7.89 nM; IC50 (Plasminogen [5]): Not Active; IC50 (Serine protease 1 [6]): Not Active; IC50 (Coagulation factor X [7]): 25.9 nM

Q: For `CN(CC(=O)N[C@@H](CC1CCCCC1)C(=O)C(=O)NCCc1ccccc1)C(=O)[C@@H](CCCN=C(N)N)NS(=O)(=O)Cc1ccccc1`, which IC50 (Prothrombin [1]) is on record?
A: 2210 nM

Q: What about the IC50 (Coagulation factor X [2]) of the same compound?
A: 13.2 nM

Q: What about the IC50 (Serine protease 1 [3]) of the same compound?
A: > 2500 nM

Q: And the IC50 (Plasminogen [5])?
A: Not Active

Q: `CN(CC(=O)N[C@@H](CC1CCCCC1)C(=O)C(=O)NCc1ccc2c(c1)OCO2)C(=O)[C@@H](CC/N=C(\N)N[N+](=O)[O-])NS(=O)(=O)Cc1ccccc1` was tested. Which IC50 (Prothrombin [1]) did it give?
A: > 2500 nM

Q: What about the IC50 (Coagulation factor X [2]) of the same compound?
A: 46.4 nM

Q: What about the IC50 (Plasminogen [5]) of the same compound?
A: Not Active

Q: What about the IC50 (Serine protease 1 [6]) of the same compound?
A: Not Active

Q: How did the IC50 (Prothrombin [1]) turn out when `CN(CC(=O)N[C@@H](CC1CCCCC1)C(=O)C(=O)NCc1ccccc1)C(=O)[C@@H](CCCN=C(N)N)NS(=O)(=O)Cc1ccccc1` was run?
A: 1960 nM

Q: What about the IC50 (Coagulation factor X [2]) of the same compound?
A: 3.26 nM

Q: And the IC50 (Serine protease 1 [3])?
A: 2500 nM

Q: And the IC50 (Plasminogen [4])?
A: > 2500 nM
